How the values were obtained:
[1] = system: sperm cells (whole semen); assay: Sperm motility of treated whole semen scored by differential interference microscopy (DIC); format: cell-based, human
Procedure: (§1) The general experimental protocol was as follows: Whole semen, obtained from human subjects after informed consent, was treated with various concentrations of fluorous surfactants. Samples were incubated for 5-10 min at 37° C. and 5% CO2. Semen samples were diluted in an isotonic buffered human sperm medium containing glucose. Sperm motility was scored as “% motility” using differential interference microscopy (“DIC”). Cell necropsy was determined by propidium iodide (“PI”) staining, which is known to stain the DNA of dead cells, and “% death” was scored using epifluorescence microscopy (stained and unstained sperm cells were counted to obtain a live/dead ratio). Acrosome integrity was determined with epifluorescence microscopy and fluorescein-conjugated Pisum sativum agglutinin (“FITC-PSA”) staining, the staining patterns of which are known to indicate the status of the acrosomal membrane.
(§2) To validate the general experimental protocol, the motility of whole semen treated with N-9 for 5 min was determined using DIC microscopy and PI staining Results are presented in Table 1.

[2] = system: sperm cells (whole semen); assay: Sperm cell necropsy by propidium iodide (PI) staining, epifluorescence microscopy; format: cell-based, human
Procedure: as §1, §2

[3] = system: acrosome of human spermatozoa; assay: Acrosome integrity by FITC-PSA staining, epifluorescence microscopy; format: cell-based; settings: average; for Type I: bright acrosome; for Type III: equatorial segment; for Type II: medium acrosome; for Type IV: no labeling
Procedure: as §1
Staining with fluorescein isothiocyanate Pisium sativum agglutinin (“FITC-PSA”) is known to stain components of the acrosome, and the staining pattern differs depending on the condition of the acrosomal membrane. This technique may be used to identify whether the acrosome is intact. Various patterns of fluorescence are seen after labeling of air-dried human spermatozoa with FITC lectins, including a bright acrosome (Type I), a medium acrosome (Type II), an equatorial segment (Type III), and no labeling (Type IV). See, e.g., Mortimer et al., “Specific Labelling by Peanut Agglutinin of The Outer Acrosomal Membrane of The Human Spermatozoon,” J. Reprod. Fert. 81, 127-35 (1987). Averages of FTIC-PSA results are presented in Table 6, which includes percentages of acrosomes compromised and types of sperm visualized in the control and treated samples.

[4] = system: Escherichia coli; assay: Effects on microbes: growth inhibition of E. coli; format: cell-based
Description: (§3) Fluorous surfactants also disrupt the membranes of pathogenic microbes, and they therefore have microbicidal activities. Preferably, they are toxic to pathogenic microorganisms, yet compatible with the flora normally found in human mucosal (e.g., vaginal) tissues. The effects of various fluorous surfactants on some laboratory models of pathogenic microorganisms (Escherichia coli, Saccharomyces cerevisiae, and Candida albicans) were studied.

[5] = system: Candida albicans; assay: Effects on microbes: growth inhibition of Candida albicans; format: cell-based; settings: for inhibition of growth of Candida: 400 mM
Description: as §3

[6] = system: HeLa cells; assay: Effects on HeLa (cervix) cells, morphology by microscopy; format: cell-based, human; settings: 1.76 mM, 30 min
Description: The effects of nonoxynol-9 and various fluorous surfactants on HeLa cells, which are a laboratory model for human cervical cells, were studied. […] Accordingly, it is believed that use of a spermicidal fluorous surfactant will be less irritating to human vaginal tissue.

Molecule: OCCOCCOCCOCC(F)(F)C(F)(F)F [F5-TEG, F5-triethylene glycol]
- % Motility ([1]; 4%, 5 min): 0%
- % Motility ([1]; 5%, 5 min): 0%
- % Motility ([1]; 6%, 5 min): 0%
- % Motility ([1]; 7%, 5 min): 0%
- % Motility ([1]; 8%, 5 min): 0%
- % Motility ([1]; 9%, 5 min): 0%
- % Motility ([1]; 10%, 5 min): 0%
- % Motility ([1]; 10%, 10 min): 0%
- % Motility ([1]; 12%, 5 min): 0%
- % Motility ([1]; 15%, 5 min): 0%
- % Motility ([1]; 15%, 10 min): 0%
- % Death ([2]; 4%, 5 min): 100%
- % Death ([2]; 5%, 5 min): 96%
- % Death ([2]; 6%, 5 min): 100%
- % Death ([2]; 7%, 5 min): 98%
- % Death ([2]; 8%, 5 min): 99%
- % Death ([2]; 9%, 5 min): 100%
- % Death ([2]; 10%, 5 min): 100%
- % Death ([2]; 10%, 10 min): 100%
- % Death ([2]; 12%, 5 min): 96%
- % Death ([2]; 15%, 5 min): 94%
- % Death ([2]; 15%, 10 min): 100%
- Acrosome Compromised ([3]; 5%): 95%
- Acrosome Not Compromised ([3]; 5%): 5%
- Type I ([3]; 5%): 5%
- Type III ([3]; 5%): 3%
- Type II ([3]; 5%): 28%
- Type IV ([3]; 5%): 64%
- Acrosome Compromised ([3]; 6%): 98%
- Acrosome Not Compromised ([3]; 6%): 2%
- Type I ([3]; 6%): 2%
- Type III ([3]; 6%): 1%
- Type II ([3]; 6%): 3%
- Type IV ([3]; 6%): 93%
- Acrosome Compromised ([3]; 10%): 67%
- Acrosome Not Compromised ([3]; 10%): 33%
- Type I ([3]; 10%): 33%
- Type III ([3]; 10%): 2%
- Type II ([3]; 10%): 26%
- Type IV ([3]; 10%): 38%
- inhibition to growth of E. coli relative to non-fluorous homologs [4]: greater inhibition
- inhibition of E. coli relative to F7-TEG ([4]; comparable doses): less inhibition
- inhibition of Candida relative to F7-TEG [5]: somewhat less inhibitory

Molecule: O=S(=O)([O-])CCCOCC(F)(F)C(F)(F)C(F)(F)F.[Na+] [F7-PS, sodium 3-(2,2,3,3,4,4,4-heptafluoro-butoxy)-propane-1-sulfonate]
- % Motility ([1]; 4%, 5 min): <1%
- % Motility ([1]; 5%, 5 min): <1%
- % Motility ([1]; 5%, 10 min): 0%
- % Motility ([1]; 7%, 5 min): 0%
- % Death ([2]; 4%, 5 min): 90%
- % Death ([2]; 4%, 10 min): 99%
- % Death ([2]; 5%, 5 min): 96%
- % Death ([2]; 5%, 10 min): 96%
- % Death ([2]; 7%, 5 min): 100%
- Acrosome Compromised ([3]; 3%): 36%
- Acrosome Not Compromised ([3]; 3%): 64%
- Type I ([3]; 3%): 64%
- Type III ([3]; 3%): 0%
- Type II ([3]; 3%): 13%
- Type IV ([3]; 3%): 22%
- Acrosome Compromised ([3]; 4%): 100%
- Acrosome Not Compromised ([3]; 4%): 0%
- Type I ([3]; 4%): 0%
- Type III ([3]; 4%): <1%
- Type II ([3]; 4%): 4%
- Type IV ([3]; 4%): 95%
- Acrosome Compromised ([3]; 7%): 41%
- Acrosome Not Compromised ([3]; 7%): 59%
- Type I ([3]; 7%): 59%
- Type III ([3]; 7%): 0%
- Type II ([3]; 7%): 40%
- Type IV ([3]; 7%): 1%
- inhibition of E. coli ([4]; 250 mM, compared with F7-TEG/F5-TEG treatments): comparable inhibition
- inhibition of growth of Candida ([5]; exposure in the order of 24 hours): significant inhibition of growth
- inhibition of growth of Candida ([5]; exposure limited to 3 or 6 hours): allowed recovery of growth

Molecule: OCCOCCOCCOCC(F)(F)C(F)(F)C(F)(F)F [F7-TEG, F7-triethylene glycol]
- % Motility ([1]; 5%, 5 min): 0%
- % Motility ([1]; 6%, 5 min): 0%
- % Motility ([1]; 7%, 5 min): 0%
- % Motility ([1]; 8%, 5 min): 0%
- % Motility ([1]; 9%, 5 min): 0%
- % Motility ([1]; 10%, 5 min): 1%
- % Motility ([1]; 12%, 5 min): 0%
- % Motility ([1]; 15%, 5 min): 0%
- % Motility ([1]; 15%, 10 min): 0%
- % Death ([2]; 5%, 5 min): 97%
- % Death ([2]; 5%, 10 min): 99%
- % Death ([2]; 6%, 5 min): 98%
- % Death ([2]; 7%, 5 min): 99%
- % Death ([2]; 8%, 5 min): 100%
- % Death ([2]; 9%, 5 min): 100%
- % Death ([2]; 10%, 5 min): 95%
- % Death ([2]; 12%, 5 min): 99%
- % Death ([2]; 15%, 5 min): 98%
- % Death ([2]; 15%, 10 min): 100%
- Acrosome Compromised ([3]; 5%): 87%
- Acrosome Not Compromised ([3]; 5%): 13%
- Type I ([3]; 5%): 13%
- Type III ([3]; 5%): <1%
- Type II ([3]; 5%): 59%
- Type IV ([3]; 5%): 28%
- Acrosome Compromised ([3]; 6%): 88%
- Acrosome Not Compromised ([3]; 6%): 13%
- Type I ([3]; 6%): 13%
- Type III ([3]; 6%): 5%
- Type II ([3]; 6%): 25%
- Type IV ([3]; 6%): 58%
- Acrosome Compromised ([3]; 10%): 96%
- Acrosome Not Compromised ([3]; 10%): 4%
- Type I ([3]; 10%): 4%
- Type III ([3]; 10%): 3%
- Type II ([3]; 10%): 34%
- Type IV ([3]; 10%): 59%
- inhibition to growth of E. coli relative to non-fluorous homologs [4]: greater inhibition
- growth of E. coli ([4]; final concentrations of 1% or greater, 3 hours or longer): unable to grow
- inhibition of Candida ([5]; 5%, exposure 3 hours or longer): substantial inhibition

Molecule: O=S(=O)([O-])CCCOCC(F)(F)C(F)(F)F.[Na+] [F5-PS]
- % Motility ([1]; 6%, 5 min): 1%
- % Motility ([1]; 9%, 5 min): 0%
- % Motility ([1]; 9%, 10 min): 0%
- % Motility ([1]; 12%, 5 min): 0%
- % Death ([2]; 6%, 5 min): 91%
- % Death ([2]; 6%, 10 min): 99%
- % Death ([2]; 9%, 5 min): 98%
- % Death ([2]; 9%, 10 min): 96%
- % Death ([2]; 12%, 5 min): 99%

Molecule: nonoxynol-9 [N-9, reference compound]
- % Motility ([1]; 0.001%, 5 min, whole semen): 43%
- % Motility ([1]; 0.005%, 5 min, whole semen): 60%
- % Motility ([1]; 0.01%, 5 min, whole semen): <1%
- % Motility ([1]; 0.1%, 5 min, whole semen): 0%
- % Death ([2]; 0.001%, 5 min, PI staining): 38%
- killing of sperm cells ([2]; 1.76 mM, 5 min): kill essentially all sperm cells
- % Death ([2]; 0.005%, 5 min, PI staining): 60%
- % Death ([2]; 0.01%, 5 min, PI staining): 67%
- % Death ([2]; 0.1%, 5 min, PI staining): 94%
- morphological changes of HeLa cells [6]: significant morphological changes
